≈ marks a conversion by molar mass, not a printed value. Read-outs that look alike come from different tables or passages of the source.
How the values were obtained:
[1] = system: L. donovani promastigotes; assay: Leishmanicidal assay (growth reversion after wash-out); assay type: cell-based, Leishmania donovani; conditions: 1 μM, 72 h treatment, then 72 h in fresh media
Method: To confirm the leishmanicidal effect of compounds 9, 12, 14, and 18, treated and untreated parasites (1 μM) after 72 h of incubation, were washed two times with fresh incomplete medium and finally resuspended in complete media, transferred back to 22°C and allowed to grow for 72 h. The viability of the parasites was determined microscopically (Afrin et al., [2001]).

[2] = system: Candida glabrata ATCC 90030; assay: Broth microdilution antifungal susceptibility (MIC/MFC); assay type: cell-based; conditions: Nakaseomyces glabratus; for MIC: ATCC90030, 48 h, broth microdilution, 35°C, 48 h, read-out: MIC, Cg ATCC 90030; for MFC: ATCC90030, ≥99.9% reduction of original inoculum, read-out: MFC, Cg ATCC 90030
How it was run: (§1)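 CLSI broth microdilution: Ca/Mg-supplemented Mueller-Hinton for bacteria (~5 × 10^5 CFU/mL, 24 h), MOPS-buffered RPMI 1640 pH 7.0 for fungi (Candida ~2.5 × 10^4, Aspergillus 0.4-5 × 10^4 CFU/mL, 48 h), 35°C, 1% DMSO, 64 to 0.12 μg/mL. MIC read visually; MBC/MFC by plating clear wells.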

[3] = system: Candida albicans ATCC 90028; assay: as above; assay type: cell-based; conditions: Candida albicans; for MIC: ATCC90028, 48 h, broth microdilution, 35°C, 48 h, read-out: MIC, Ca ATCC 90028; for MFC: ATCC90028, ≥99.9% reduction of original inoculum, read-out: MFC, Ca ATCC 90028
How it was run: as §1

[4] = system: Aspergillus niger ATCC 16404; assay: as above; assay type: cell-based; conditions: for MIC / MFC: Aspergillus niger; for MIC: ATCC16404, 48 h, read-out: MIC, An ATCC 16404; for MIC / MIC, An ATCC 16404: broth microdilution, 35°C, 48 h; for MFC: ATCC16404, ≥99.9% reduction of original inoculum, read-out: MFC, An ATCC 16404
How it was run: as §1

[5] = system: Aspergillus fumigatus ATCC 16424; assay: as above; assay type: cell-based; conditions: for MIC / MFC: Aspergillus fumigatus; for MIC: ATCC16424, 48 h, read-out: MIC, Af ATCC 16424; for MIC / MIC, Af ATCC 16424: broth microdilution, 35°C, 48 h; for MFC: ATCC16424, ≥99.9% reduction of original inoculum, read-out: MFC, Af ATCC 16424
How it was run: as §1

[6] = system: L. donovani intracellular amastigotes; assay: Anti-amastigote activity in ex vivo macrophage model; assay type: cell-based, Leishmania donovani; conditions: Leishmania donovani, Peritoneal macrophage, in Mus musculus; intracellular amastigotes in BALB/c peritoneal macrophages, 48 h; read-out: L. donovani amastigotes IC50 ± SEM
Description: BALB/c mice was used for the isolation of peritoneal macrophages in the ex vivo anti-amastigote study after prior approval from the Jamia Hamdard Animal Ethics Committee (JHAEC). JHAEC is registered under the Committee for the purpose of supervision and control of experiments on animals (CPCSEA). Mice were individually housed in the Central Animal House of Jamia Hamdard as per internationally accepted norms. The mice were kept in standard size polycarbonate cages under controlled conditions of temperature (23 ± 1°C), humidity (55 ± 10%), 12:12 h of light and dark cycle and fed with standard pellet diet and filtered water (ad libitum).
Macrophages from the peritonial cavity of BALB/c mice (1 × 10^6 cellsml^−1) were allowed to adhere to round glass coverslips in a 24 well tissue culture plate and incubated for 12 h at 37°C in a CO2 incubator. After removal of the non-adherent macrophages, the cells were infected with stationary phase promastigotes using a cell to parasite ratio of 1:10 and incubated at 37°C for 24 h. The non-phagocytosed parasites were removed by washing, and the infected macrophages incubated with the test compounds 9, 12, 14, and 18 (0–25 μM) for an additional 48 h. The coverslips were fixed in methanol and giemsa-stained for microscopic evaluation (100X) of amastigote infectivity. Number of amastigotes per 100 macrophages were enumerated and the concentration that decreased amastigotes by 50% (IC50) was determined (Wong et al., [2012]; Islamuddin et al., [2014a]).
(§2) In vitro antileishmanial activity was expressed as IC50 by linear regression analysis. Values are mean ± SE of samples in triplicate from at least three independent experiments. Statistical analysis was performed using ANOVA followed by Dunnett's test. ^*P < 0.05, ^**P < 0.01 and ^***P < 0.001 compared with the untreated control group were considered significant.

[7] = system: L. donovani promastigotes; assay: Dose-dependent anti-promastigote activity, IC50 and IC90; assay type: cell-based, Leishmania donovani; conditions: for Anti-leishmanial activity, in words (compounds with IC50 determined): L. donovani promastigotes
Method: (§3) L. donovani parasites (MHOM/IN/83/AG83) were maintained in vivo in BALB/c mice. Promastigotes were routinely cultured at 22°C in medium M199 supplemented with 10% heat inactivated fetal bovine serum (FBS, HiMedia Laboratories, Mumbai, India), penicillin 100 (IU/ml), streptomycin (100 μg/ml). Log phase promastigotes were sub-cultured every 72–96 h, the inoculum being 2 × 10^6 cells/ml (Afrin et al., [2002]).
AmB was used as a standard antileishmanial drug control. The cell viability was evaluated by microscopically and the mean percentage viability was calculated as follows: Mean cell number of treated parasites / Mean cell number of untreated parasites × 100. The 50 and 90% inhibitory concentration (IC50 and IC90) i.e., the concentration of drugs that decreased the cell growth by 50 and 90% respectively was determined by graphical extrapolation after plotting the graph of % viability vs. concentration of drug (Islamuddin et al., [2014b]).
as §2

[8] = system: Staphylococcus aureus ATCC 29213; assay: Broth microdilution antibacterial susceptibility (MIC/MBC); assay type: cell-based; conditions: for MIC / MBC: Staphylococcus aureus; for MIC: ATCC29213, 24 h, read-out: MIC, Sa ATCC 29213; for MIC / MIC, Sa ATCC 29213: broth microdilution, 35°C, 24 h; for MBC: ATCC29213, ≥99.9% reduction of original inoculum, read-out: MBC, Sa ATCC 29213
How it was run: as §1

[9] = system: Pseudomonas aeruginosa ATCC 27853; assay: as above; assay type: cell-based; conditions: for MIC / MBC: Pseudomonas aeruginosa; for MIC: ATCC27853, 24 h, read-out: MIC, Pa ATCC 27853; for MIC / MIC, Pa ATCC 27853: broth microdilution, 35°C, 24 h; for MBC: ATCC27853, ≥99.9% reduction of original inoculum, read-out: MBC, Pa ATCC 27853
How it was run: as §1

[10] = system: Staphylococcus epidermidis ATCC 14990; assay: as above; assay type: cell-based; conditions: for MIC / MBC: Staphylococcus epidermidis; for MIC: ATCC14990, 24 h, read-out: MIC, Se ATCC 14990; for MIC / MIC, Se ATCC 14990: broth microdilution, 35°C, 24 h; for MBC: ATCC14990, ≥99.9% reduction of original inoculum, read-out: MBC, Se ATCC 14990
How it was run: as §1

[11] = system: Escherichia coli ATCC 25922; assay: as above; assay type: cell-based; conditions: for MIC / MBC: Escherichia coli; for MIC: ATCC25922, 24 h, read-out: MIC, Ec ATCC 25922; for MIC / MIC, Ec ATCC 25922: broth microdilution, 35°C, 24 h; for MBC: ATCC25922, ≥99.9% reduction of original inoculum, read-out: MBC, Ec ATCC 25922
How it was run: as §1

[12] = system: L. donovani promastigotes; assay: Anti-leishmanial screening at 100 μM, parasite viability by microscopy; assay type: cell-based, Leishmania donovani; conditions: 100 μM, 72 h, phase contrast microscope
Method: as §3
Nitrostyrine series were screened for their antileishmanial activity against L. donovani promastigotes in vitro. Promastigotes of L. donovani (2 × 10^6 cells/mL) in M199 medium were incubated at 22°C for 72 h with each compound at a concentration of 100 μM. Amphotericin B (AmB) served as reference drug, 0.2% DMSO was used as solvent control. Parasites with media alone were taken as control. Parasite viability was determined microscopically after 72 h (Islamuddin et al., [2014b]).

[13] = Leishmania donovani, 72 h, 22°C, values given in μM, read-out: IC50 against promastigotes

Row | Structure (SMILES) | MIC [2] [mg/L] | MFC [2] [mg/L] | MIC [3] [mg/L] | MFC [3] [mg/L] | MIC [4] [mg/L] | MFC [4] [mg/L] | MIC [5] [mg/L] | MFC [5] [mg/L] | melting point [°C] | MIC [8] [mg/L] | MBC [8] [mg/L] | MIC, Sa ATCC 29213 [8] [mg/L] | MIC [9] [mg/L] | MBC [9] [mg/L] | MIC, Pa ATCC 27853 [9] [mg/L] | MIC [10] [mg/L] | MBC [10] [mg/L] | MIC [11] [mg/L] | MBC [11] [mg/L] | Parasite viability after treatment [12] | other results
1 | C[C@@H]1[C@H](O)[C@@H](C)/C=C/C=C/C=C/C=C/C=C/C=C/C=C/[C@H](O[C@@H]2O[C@H](C)[C@@H](O)[C@H](N)[C@@H]2O)C[C@@H]2O[C@](O)(C[C@@H](O)C[C@@H](O)[C@H](O)CC[C@@H](O)C[C@@H](O)CC(=O)O[C@H]1C)C[C@H](O)[C@H]2C(=O)O [AmB, Amphotericin B, reference compound] | 0.5 (≈ 0.541 µM) | 0.5 (≈ 0.541 µM) | 0.5 (≈ 0.541 µM) | 0.5 (≈ 0.541 µM) | 1 (≈ 1.08 µM) | 1 (≈ 1.08 µM) | 0.5 (≈ 0.541 µM) | 1 (≈ 1.08 µM) | – | – | – | – | – | – | – | – | – | – | – | – | Leishmanicidal effect (reversion after wash and 72 h in fresh media) [1]: as also observed in positive drug control; IC50 [6]: 0.0278 ± 0.00326 µM; IC50 ([7]; Leishmania donovani, 72 h, 22°C, mean from three determinations, read-out: L. donovani promastigotes IC50 ± SEM): 0.0196 ± 0.00171 µM; IC90 ([7]; Leishmania donovani, 72 h, 22°C, mean from three determinations, read-out: L. donovani promastigotes IC90 ± SEM): 0.0826 ± 0.00136 µM
2 | C/C(=C\c1cccc(O)c1)[N+](=O)[O-] [Compound 20, 3-((E)-2-nitroprop-1-enyl) phenol] | – | 8 (≈ 44.6 µM) | – | 16 (≈ 89.3 µM) | 2 to 4 (≈ 11.2 to 22.3 µM) | 4 (≈ 22.3 µM) | 4 to 8 (≈ 22.3 to 44.6 µM) | 8 (≈ 44.6 µM) | 96 to 98 | 2 to 32 (≈ 11.2 to 179 µM) | 4 (≈ 22.3 µM) | 2 (≈ 11.2 µM) | 16 to 32 (≈ 89.3 to 179 µM) | 32 (≈ 179 µM) | 16 (≈ 89.3 µM) | 2 to 16 (≈ 11.2 to 89.3 µM) | 2 (≈ 11.2 µM) | 16 to 32 (≈ 89.3 to 179 µM) | 16 (≈ 89.3 µM) | All the parasites were found to be dead | MIC, Se ATCC 14990 [10]: 2 mg/L (≈ 11.2 µM); MIC, Ec ATCC 25922 [11]: 16 mg/L (≈ 89.3 µM); MIC, An ATCC 16404 [4]: 4 mg/L (≈ 22.3 µM); MIC, Af ATCC 16424 [5]: 8 mg/L (≈ 44.6 µM); Anti-leishmanial activity, in words (compounds with IC50 determined) [7]: moderately active; IC50 [7, 13]: 63.2 ± 2.06 µM
3 | CC/C(=C\c1cccc(O)c1)[N+](=O)[O-] [Compound 21, 3-((E)-2-nitrobut-1-enyl) phenol] | – | 16 (≈ 82.8 µM) | – | 32 (≈ 166 µM) | 2 to 4 (≈ 10.4 to 20.7 µM) | 8 (≈ 41.4 µM) | 4 to 8 (≈ 20.7 to 41.4 µM) | 8 (≈ 41.4 µM) | 82 to 84 | 2 to 32 (≈ 10.4 to 166 µM) | 4 (≈ 20.7 µM) | 2 (≈ 10.4 µM) | 16 to 32 (≈ 82.8 to 166 µM) | 64 (≈ 331 µM) | 32 (≈ 166 µM) | 2 to 16 (≈ 10.4 to 82.8 µM) | 2 (≈ 10.4 µM) | 16 to 32 (≈ 82.8 to 166 µM) | 64 (≈ 331 µM) | All the parasites were found to be dead | MIC, Se ATCC 14990 [10]: 2 mg/L (≈ 10.4 µM); MIC, Ec ATCC 25922 [11]: 32 mg/L (≈ 166 µM); MIC, An ATCC 16404 [4]: 4 mg/L (≈ 20.7 µM); MIC, Af ATCC 16424 [5]: 8 mg/L (≈ 41.4 µM); IC50 [7, 13]: 28.4 ± 3.11 µM
4 | COc1ccc(/C=C(\C)[N+](=O)[O-])cc1OC [Compound 23, 1,2-dimethoxy-4-((E)-2-nitroprop-1-enyl) benzene] | 4 (≈ 17.9 µM) | 4 (≈ 17.9 µM) | 32 (≈ 143 µM) | 32 (≈ 143 µM) | 8 (≈ 35.8 µM) | 8 (≈ 35.8 µM) | 16 (≈ 71.7 µM) | 16 (≈ 71.7 µM) | 70 to 72 | 8 (≈ 35.8 µM) | 16 (≈ 71.7 µM) | – | > 64 | > 64 | – | 8 (≈ 35.8 µM) | 8 (≈ 35.8 µM) | > 64 | > 64 | All the parasites were found to be dead | Anti-leishmanial activity, in words (compounds with IC50 determined) [7]: moderate activity

— paper PMC5007854, “β-Nitrostyrenes as Potential Anti-leishmanial Agents” (Frontiers in Microbiology, 2016)
